Measurements published in US20100003191A1, “AURONE DERIVATIVE-CONTAINING COMPOSITION FOR DIAGNOSIS” (NAGASAKI UNIVERSITY, priority 2006, published 2010).

How the values were obtained:
[1] = target: T1, Aβ(1-42) aggregate (Homo sapiens, UniProt P05067); assay: In vitro binding experiment of [125I]-labeled aurone derivatives using Aβ(1-42) aggregates; settings: [125I]-labeled compounds, Ab(1-42) aggregates; for intensity of the binding property to Ab aggregates (order): radioactivity remaining on filter, FIG. 4
T1 construct: Amyloid (3 protein (Human, 1-42) [TFA form] was purchased from Peptide Institute, Inc); purchased Peptide Institute, Inc
Method: Aβ aggregates were prepared by dissolving in a buffer containing 10 mM sodium phosphate and 1 mM EDTA (pH 7.4) at a concentration of 0.5 mg/mL and incubating at 37° C. for 42 h. The binding experiment was performed using 12×75 mm borosilicate glass tubes. [^125I]IMPY used for comparison was prepared according to the method described previously (Zhuang Z P, Kung M P, Wilson A, Lee C W, Plossi K, Hou C, Holzman D M, Kung H F. Structure-activity relationship of imidazo[1,2-a]pyridines as ligands for detecting β-amyloid plaques in the brain. J. Med. Chem. 2003, 46(2): 237-43). 900 μL of 10% ethanol solution, 50 μL of [^125I]-labeled aurone derivative with various concentrations (in 10% aqueous ethanol) or 50 μL of [^125I]IMPY, and 50 μL (29 nM) of an Aβ(1-42) aggregate solution were mixed, and the mixture was allowed to stand at room temperature for 3 h. Aβ3 aggregate-bound aurone derivative and nonbound aurone derivative were separated with a Brandel M-24R cell harvester using Whatman GF/B filters. The radioactivities of substances remaining on the filter used for filtration were measured with a γ counter.
FIGS. 4 and 5 show the results of experiments in which aurone derivatives were reacted in the presence and absence of Ab aggregates; the reaction mixture was filtered with a cell harvester; and the remaining radioactivity on the filter was measured. […] The intensity of the binding property increased in the following order: [^125I] Compound 7>[^125I] Compound 12=[^125I] IMPY>[^125I] Compound 14=[^125I] Compound 17>[^125I] Compound 20 (FIG. 4). The binding property to Ab aggregates of those compounds with —NH2, OMe- and OH group in their side chains are lower than the binding property of [^125] IMPY. On the other hand, those compounds with NHMe- and NMe2 group show equal or higher binding property to Ab aggregates compared to the binding property of [^125I] IMPY. […] Among all, the binding of Compound 7 to Ab aggregates was equal or more than the binding of [^125I] IMPY which is clinically tested at present. Therefore, it has become clear that this compound satisfies a critical requirement as an imaging probe for amyloid β.

[2] = system: senile plaques on brain sections from Tg2576 mice; assay: Fluorescence staining and immunostaining on brain sections from transgenic mice; assay type: binding; settings: Tg2576 mouse brain sections, FIG. 9
Method: As Alzheimer's disease model mouse, Tg2576 mice (20-month-old) were used. Brain tissues were removed and frozen in carboxymethyl cellulose (4%). Then, a series of sections 10 μm thick were prepared therefrom. The thus prepared sections were reacted with a ligand (a solution of Compound 26 and thioflavin in 50% EtOH) for 3 min. Then, the sections were washed with 50% EtOH (1 min×twice) and observed under a fluorescence microscope. Further, using adjacent sections, immunostaining was performed by conventional methods with anti-amyloid (3(1-42) antibody.
Fluorescence staining was performed on brain sections from Alzheimer's disease model mouse (Tg2576) utilizing the fluorescence property of Compound 26 (FIG. 9).

[3] = male, ddY, mouse, in vivo, 2 min
Method: Animals were decapitated at 2, 10, 30 or 60 min after the injection, and the blood was collected. Then, major organs were removed, and weights and radioactivities thereof were measured.
In vivo radioactivity distribution experiments of ^125I-labeled aurone derivatives were performed using 5-week-old normal mice.

[4] = system: senile plaque amyloid on hippocampal sections from Alzheimer's disease patients; assay: In vitro autoradiography and immunostaining on brain sections from Alzheimer's disease patients (Example 2); assay type: binding, human; settings: AD patient brain sections, FIG. 10
Method: Hippocampal sections (5 μm thick) from Altzheimer's disease patients were dewaxed by washing with xylene ((5 min×2) and with 100% EtOH, 100% EtOH, 95% EtOH, 85% EtOH and 70% EtOH (1 min×1 for each). After air-drying, the sections were reacted with a ligand (40% EtOH solution) for 1 h. Then, the sections were washed with saturated aqueous lithium carbonate solution in 40% EtOH (2 min×2), with 40% EtOH (2 min×2) and with water (30 sec×1), and immobilized on imaging plates for 24 h. Subsequently, the sections were analyzed with BAS2500. Further, using adjacent sections, immunostaining was performed by conventional methods with anti-amyloid β(1-42) antibody.
Autoradiography was performed on brain sections from Altzheimer's disease patients with [^125I]26 (FIG. 10).

[5] = target: T2, Ab(1-42) aggregates (Homo sapiens, UniProt P05067); assay: Binding inhibition experiment using Ab(1-42) aggregates, inhibition constants (Ki), radioligand [125I](Z)-2-(4-aminobenzylidene)-5-iodobenzofuran-3(2H)-one (Table 14); settings: Aβ42 aggregates
T2 construct: Ab(1-42) was dissolved in 10 mM phosphate buffer containing 1 mM EDTA (pH 7.4)
Method: Ab(1-42) was dissolved in 10 mM phosphate buffer containing 1 mM EDTA (pH 7.4) to give a concentration of 0.25 mg/mL, and the mixture was incubated at 37° C. for 42 h to thereby prepare Ab(1-42) aggregates.
[…] of 10% EtOH solution, […] of a solution of [^125I](Z)-2-(4-aminobenzylidene)-5-iodobenzofuran-3(2H)-one in 10% ethanol, and […] of a sample solution at various concentrations ([…]) were mixed. Finally, […] of Ab(1-42) aggregate solution was added thereto, and the mixture was allowed to stand at room temperature for 3 h. Ab(1-42) aggregate-bound compounds and nonbound compounds were separated with a Brandel M-24R cell harvester using a Whatman GF/B filter. Radioactivities remaining on the filter were measured with a γ-counter, and inhibition curves were created using Graph Pad Prism 4.0 to calculate inhibition constants (Ki values).
In order to calculate inhibition constants (Ki values) for various aurone derivatives synthesized, binding inhibition experiments were performed using [^125I](Z)-2-(4-aminobenzylidene)-5-iodobenzofuran-3(2H)-one as a radioactive ligand. […] Thus, aurone derivatives have shown a high binding property to amyloid aggregates. No difference in binding property resulting from the length of introduced ethyleneoxy chains was observed.

T1 sequence (P05067 672-713 limits assumed): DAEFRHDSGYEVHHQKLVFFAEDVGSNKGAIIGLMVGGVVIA
T2 sequence (P05067 672-713 limits assumed): as above

Structure (SMILES)	intensity of the binding property to Ab aggregates (order) [1]	migration of radioactivity to the brain [3]	Ki [5]	further results
CN(C)c1ccc(/C=C2\Oc3ccc(I)cc3C2=O)cc1 [Compound 7, 5-iodo-4′-dimethylaminoaurone]	[^125I] Compound 7>[^125I] Compound 12			binding property to Ab aggregates compared with [125I]IMPY [1]: equal or more than the binding of [^125I] IMPY
CNc1ccc(/C=C2\Oc3ccc(I)cc3C2=O)cc1 [Compound 12, 5-iodo-4′-methylaminoaurone]	[^125I] Compound 12=[^125I] IMPY			
Nc1ccc(/C=C2\Oc3ccc(I)cc3C2=O)cc1 [Compound 14, 5-iodo-4′-aminoauron]	[^125I] Compound 14=[^125I] Compound 17			
COc1ccc(/C=C2\Oc3ccc(I)cc3C2=O)cc1 [Compound 17, 5-iodo-4′-methoxyaurone]	[^125I] Compound 17>[^125I] Compound 20			
CN(C)c1ccc(-c2cn3cc([125I])ccc3n2)cc1 [[^125I] IMPY, reference compound]	[^125I] IMPY>[^125I] Compound 14			

Now from value to compound, other results behind:

intensity of the binding property to Ab aggregates (order) [1]	migration of radioactivity to the brain [3]	Ki [5]	Structure (SMILES)	further results
>[^125I] Compound 20			O=C1/C(=C/c2ccc(O)cc2)Oc2ccc(I)cc21 [Compound 20, 5-iodo-4′-hydroxyaurone]	
	2.4-4.5 % ID/g	1.05 ± 0.06 nM	O=C1/C(=C/c2ccc(OCCO)cc2)Oc2ccc(I)cc21 [Compound 26, (Z)-2-(4-(2-hydroxyethoxy)benzylidene)-5-iodobenzofuran-3(2H)-one]	fluorescence image on brain sections [2]: consistent with the fluorescence image of thioflavin S on adjacent section and the immunostaining image of anti-amyloid antibody on adjacent section; radioactivity in autoradiography vs immunostaining [4]: observed at the positive site of immunostaining with anti-amyloid antibody
	2.4-4.5 % ID/g	3.36 ± 0.29 nM	O=C1/C(=C/c2ccc(OCCOCCO)cc2)Oc2ccc(I)cc21 [Compound 27, (Z)-2-(4-(2-(2-hydroxyethoxy)ethoxy)benzylidene)-5-iodobenzofuran-3(2H)-one]	
	2.4-4.5 % ID/g	2.56 ± 0.31 nM	O=C1/C(=C/c2ccc(OCCOCCOCCO)cc2)Oc2ccc(I)cc21 [Compound 28, (Z)-2-(4-(2-(2-(2-hydroxyethoxy)ethoxy)ethoxy)benzylidene)-5-iodobenzofuran-3(2H)-one]	
